Source: patent US20230165788A1, “MULTI-DRUG FORMULATIONS FOR SUBCUTANEOUS BIODEGRADABLE RESERVOIR DEVICE” (Research Triangle Institute, priority 2020, published 2023)

How the values were obtained:
[1] = Evaluation of Elvitegravir for use in the device: solubility and dose; type: physicochemical
Text: (§1) The active agent formulation includes more than one active agent and an excipient. One or more of the more than one active agent can be one or a combination of a therapeutic, a preventative, a prophylactic and/or a contraceptive. […] Not all active agents are amenable for use in the described device. Active agents having sufficient aqueous solubility and stability and dosing requirements and that are amenable to size parameters of the device are suitable for use in the described device. Moreover, in embodiments, the active agents retain a high level of purity that is both safe and efficacious to the user throughout the intended dosage duration and are not susceptible to immediate degradation caused by environmental contents (e.g., body fluids, physiological temperature). In additional embodiments, the solubility of active agents within potential excipients can range from 0.1-50 mg/mL.

HIV = test: Evaluation of Elvitegravir for use in the device: potency
Text: as §1

[2] = non-polymeric refillable implant, rhesus macaques; cited from earlier work
[3] = beagle dogs, cited from earlier work

COc1cc2c(cc1Cc1cccc(Cl)c1F)c(=O)c(C(=O)O)cn2[C@H](CO)C(C)C [Elvitegravir]
solubility [1]: relatively low solubility | potency (HIV): suboptimal potency

Nc1nc(=O)n([C@@H]2CS[C@H](CO)O2)cc1F [FTC, emtricitabine]
period of sustained levels of FTC-triphosphate (FTC-TP) [2]: 28 days

CC(C)OC(=O)[C@H](C)N[P@](=O)(CO[C@H](C)Cn1cnc2c(N)ncnc21)Oc1ccccc1 [TAF, tenofovir alafenamide]
duration of drug delivery ([3]; subdermal silicone implant with PVA-coated channels): 40 days | adverse events ([3]; subdermal silicone implant): without observed adverse events | period of sustained levels of tenofovir diphosphate (TFV-DP) in PBMCs [2]: 83 days
